How the values were obtained:
Huh-7 [1] = test: Compound was tested for its ability to inhibit hepatitis C viral RNA replication in Huh-7 cells (human hepatoma cells); type: functional, cell-based
Huh-7 [2] = test: Cytotoxicity using HCV replicon assay; type: functional; settings: Homo sapiens

Compound	EC50 (Huh-7 [1]) [µM]	CC50 (Huh-7 [2]) [µM]
CCN1N=C(N)c2cn([C@@H]3O[C@H](CO)[C@@H](O)[C@@]3(C)O)c3ncnc1c23	15	> 200
C[C@@]1(O)[C@H](O)[C@@H](CO)O[C@H]1n1cc2c3c(ncnc31)N(CCO)N=C2N	200	> 300
NC1=NN(CCO)c2ncnc3c2c1cn3[C@@H]1O[C@H](CO)[C@@H](O)[C@H]1O	20	> 300
CCCCN1N=C(N)c2cn([C@@H]3O[C@H](CO)[C@@H](O)[C@@]3(C)O)c3ncnc1c23	100	> 300
CC(=O)NC1=NN(CCO)c2ncnc3c2c1cn3[C@@H]1O[C@H](CO)[C@@H](O)[C@@]1(C)O	100	200
CC(=O)NC1=NN(C)c2ncnc3c2c1cn3[C@@H]1O[C@H](CO)[C@@H](O)[C@@]1(C)O	150	300
CCCN1N=C(N)c2cn([C@@H]3O[C@H](CO)[C@@H](O)[C@@]3(C)O)c3ncnc1c23	100	> 300
CCN1N=C(N)c2cn([C@@H]3O[C@H](CO)[C@@H](O)[C@H]3O)c3ncnc1c23	1	150
NC1=NN(Cc2ccccc2)c2ncnc3c2c1cn3[C@@H]1O[C@H](CO)[C@@H](O)[C@H]1O	125	> 300
CN1N=C(N)c2cn([C@@H]3O[C@H](CO)[C@@H](O)[C@@]3(C)O)c3ncnc1c23	18	> 300
